Assay results taken from patent publication US4912104A, “Tricyclic fused pryimidine derivatives, and their use as pharmaceuticals” (Takeda Chemical Industries, Ltd., priority 1987, dated 1990).

Columns and labels:
[1] = system: Carrageenin edema; assay: Antiinflammatory action (Carrageenin edema method); format: in vivo, Jcl: SD rats; conditions: Rattus norvegicus; 50 mg/kg oral, one hour before carrageenin; paw volume 3 hours later; rats; read-out: Inhibition rate, Carrageenin edema
Experimental: (1) Antiinflammatory action (Carrageenin edema method)
Using a group of six Jcl: SD rats (6 week old, male), antiinflammatory action was investigated in accordance with the method of Winter et al. [Proc. Soc. Exp. Biol. Med., 111, 544(1962)]. One hour after the oral administration of 50 mg/kg of a test sample, the animals were injected subcutaneously with 0.05 ml each of a 1% solution of carrageenin in physiological saline solution into a sole. The volume of the hind-paw was measured 3 hours later and compared with that before the injection, and the edema volume was determined from the difference. By comparing the edema volumes of animal groups untreated and treated with test samples, the inhibition rate was determined.

[2] = system: Reversed passive Arthus reaction; assay: Antiinflammatory action (Reversed passive Arthus reaction); format: in vivo, Jcl: SD rats; conditions: Rattus norvegicus, 1 h; 12.5 mg/kg oral, one hour before the injection of egg albumin; rats; read-out: Inhibition rate, Reversed passive Arthus reaction
Experimental: (2) Antiinflammatory action (Reversed passive Arthus reaction)
A group consisting of six Jcl: SD rats (7 week old, male was used. The hair of the back of the animals was cut, under ether anesthesia, and 1 ml each of a 0.5% solution of egg albumin in physiological saline solution was injected into the tail vein of each test animal, followed by intradermal injection of 0.1 ml of rabbit anti-egg albumin antiserum at each side of the left and right of the back and a further intradermal injection of 0.1 ml of physiological saline solution at the left side. Three hours later, each animal was intravenously injected with 1 ml of 1% Evans' blue physiological saline solution. Thirty minutes later, the test animals were exfoliated and the area(mm^2) of each of the blue spot was measured. The test sample in a dose of 12.5 mg/kg was orally administered one hour before the injection of egg albumin. By comparing the area(mm^2) of the blue spot in the test group with that of the control group, inhibition rate was determined.

[3] = system: Phenyl quinone writhing; assay: Analgesic action (Phenyl quinone writhing method); format: in vivo, Slc: ICR mice; conditions: Mus musculus, 20 min; 50 mg/kg oral, 30 minutes before phenyl quinone; 20 minutes counting; mice; read-out: Inhibition rate, Phenyl quinone writhing
Experimental: Analgesic action (Phenyl quinone writhing method)
Using a group of 10 Slc: ICR mice (4 week old, male), analgesic action was investigated in accordance with the method of Siegmund et al. [Proc. Soc. Exp. Biol. Med., 95, 729(1957)]. A test sample in a dose of 50 mg/kg was orally administered, and 30 minutes later, a 0.02% aqueous phenyl quinone solution was intraperitoneally injected in the proportion of 0.1 ml relative to 10 g of body weight. Over the period of 20 minutes from the injection, the number of writhings was counted for the individual animals. By comparing the untreated and treated animal groups for the number of reactions, the writhing inhibition rate was determined.

[4] = system: Jcl: ICR mice; conditions: mouse, in vivo
Experimental: A group of 5 Jcl: Wistar rats (5 week old, 90-110 g body weight, Japan Clea, male) and a group of 5 Jcl: ICR mice (5 week old, 25-30 g body weight, Japan Clea, male) were used. These rats were each administerred orally with 10 ml/kg of the test compound (250 mg/kg), while these mice were each administered orally with 20 ml/kg of the test compound (500 mg/kg).
These oral administrations were made on the form of a suspension in 5% gum arabic vehicle. One week later, the number of dead animals was observed.

[5] = system: acute hepatic failure due to P. acnes-LPS; assay: Effect against acute hepatic failure due to P. acnes-LPS (anti-lethal effect); format: in vivo, BALB/c mice; conditions: 0.3 mg/kg, p.o., one hour prior to LPS, 48 hours later; for Anti-lethal effect: Number of dead mice: group of 10, control 10 dead
Experimental: A group of 10 BALB/c mice (7 week old, male) was used. Each mouse was injected into the tail vein with P. acnes killed by heating at a dose of 1 mg/mouse. Seven days later, each mouse was injected intravenously with LPS(1 l μg/mouse) derived from Salmonella enteritidis to cause acute hepatic failure. Usually, in a group of mice intravenously injected with LPS, 90% to 100% of the animals die within 24 hours. Using this model, each compound was tested. Each compound(I) shown in Table 2 was suspended in a 5% gum arabic vehicle and was orally administered to the animals at 0.3 mg/kg one hour prior to the injection of LPS, and then 48 hours later, the number of the dead mice was determined. The mice in the control group were orally given the 5% gum arabic vehicle one hour prior to LPS administration.

| SMILES | inhibition in vivo at 50 mg/kg [1] [%] | inhibition in vivo at 12.5 mg/kg [2] [%] | inhibition in vivo at 50 mg/kg [3] [%] | number of dead animals, Mice [4] | Anti-lethal effect: effective ratio [5] [%] | Anti-lethal effect: Number of dead mice [5] |
| --- | --- | --- | --- | --- | --- | --- |
| CCCCn1c(=O)n(CCC)c(=O)c2c3n(nc21)CCN3C(C)=O [compound 40] | 82 | 69 | 89 | 0 |  |  |
| C=CCn1c(=O)c2c(nn3cc[nH]c23)n(CC=C)c1=O [compound 45] | 85 | 74 | 87 |  | 100 | 0 |
| CCCn1c(=O)c2c(nn3cc[nH]c23)n(CCC)c1=O [compound 44] | 90 | 91 | 96 |  | 100 | 0 |
| CCCn1c(=O)c2c3n(nc2n(CCC(C)C)c1=O)CCN3 [compound 17] | 83 | 73 | 79 |  |  |  |
| CCCCn1c(=O)n(CCC)c(=O)c2c3n(nc21)CCN3C [compound 1] | 70 | 32 | 97 |  |  |  |
| CCCn1c(=O)c2c3n(nc2n(CC)c1=O)CCN3 [compound 10] | 100 | 36 | 87 |  |  |  |
| CCCn1c(=O)c2c3n(nc2n(CCC)c1=O)CCN3C(=O)CC [compound 33] | 87 | 87 | 77 |  |  |  |
| CCCCCn1c(=O)n(CCC)c(=O)c2c1nn1cc[nH]c21 [compound 50] | 78 | 79 | 89 |  | 90 | 1 |
| CCCCn1c(=O)c2c3n(nc2n(CCCC)c1=O)CCN3 [compound 3] | 100 | 68 | 98 |  |  |  |
| CCCCn1c(=O)c2c(nn3cc[nH]c23)n(CCCC)c1=O [compound 46] | 90 | 70 | 96 |  | 80 | 2 |
| CCCCn1c(=O)n(CCC)c(=O)c2c1nn1cc[nH]c21 [compound 43] | 109 | 90 | 89 |  | 100 | 0 |
| CCCn1c(=O)c2c3n(nc2n(CCC)c1=O)CCN3 [compound 13] | 97 | 65 | 95 | 0 |  |  |
| C=CCn1c(=O)c2c3n(nc2n(CC=C)c1=O)CCN3 [compound 29] | 79 | 73 | 80 |  |  |  |
| CCCCCn1c(=O)n(CCC)c(=O)c2c3n(nc21)CCN3 [compound 6] | 105 | 71 | 96 |  |  |  |
| CCCCn1c(=O)n(CCC)c(=O)c2c3n(nc21)CCN3 [compound 2] | 103 | 65 | 100 |  |  |  |
| CCCn1c(=O)c2c(nn3cc[nH]c23)n(CC(C)C)c1=O [compound 48] | 95 | 93 | 91 |  | 90 | 1 |
| C=CCn1c(=O)n(CCC)c(=O)c2c3n(nc21)CCN3 [compound 18] | 93 | 87 | 90 |  |  |  |
| C=CCn1c(=O)n(CCC)c(=O)c2c1nn1cc[nH]c21 [compound 49] | 80 | 88 | 80 |  | 70 | 3 |
| CCn1c(=O)c2c3n(nc2n(CC)c1=O)CCN3 [compound 7] | 99 | 42 | 52 |  |  |  |
